Laboratory results as given in patent US20050238734A1, “Detection of nitrosylated proteins” (University of Vermont and State Agricultural College, priority 2004, published 2005).

Tests used:
[1] = system: C10 cells; assay: In situ detection of S-nitrosylated proteins in intact cells (biotin derivatization, streptavidin-FITC, confocal microscopy); assay type: cell-based, mouse
Procedure: A line of spontaneously transformed mouse lung alveolar type II epithelial cells (C10) was used in some experiments, as described below. C10 cells were cultured in CMRL1066 medium containing 10% fetal bovine serum (FBS, GIBCO). In experiments involving microscopic analysis, the cells were grown on glass cover slips. At about one hour prior to exposure to a test agent, the medium was switched to phenol red free DMEM/F12 containing 0.5% FBS. Some cells were exposed to S-nitroso-glutathione (GSNO) or S-nitroso-N-acetyl penicillamine (SNAP) for about 1 hour, in the presence of an equimolar concentration of freshly prepared L-cysteine. To monitor S-nitrosylation in response to NOS2 activation, the cells were treated with 10 ng/ml TNF alpha (TNFα) and 100 U/ml interferon gamma (IFNγ), for about 24 hours. Incubation with L-N-monomethyl arginine (L-NMMA) for about 16 hours was used to inhibit endogenous NO production and D-NMMA (D-N-monomethyl arginine) was used as a control. Nuclear export was blocked by leptomycin B (5 ng/ml, exposure for about 12 hours). All experiments were performed in duplicate and were repeated at least three times.
To evaluate the localization of S-nitrosylated proteins in intact cells, the biotin derivatization method described above was used in combination with fluorophore labeling and visualized using confocal microscopy. Cells grown on cover slips were rinsed with PBS containing 0.1 mM EDTA and 0.01 mM neocuproine, and fixed in 4% PFA (paraformaldehyde) for 20 minutes at RT. The cells were permeabilized, and protein SH groups were blocked using HEN buffer containing 2.5% SDS, 0.5% CHAPS, and 20 mM MMTS (methylmethanethiosulfonate) for 20 min at 55° C. with constant shaking. After removal of MMTS, the cells were incubated with 1 mM sodium ascorbate and 0.4 mM biotin-HPDP (N-[6-(biotinamido)hexyl]-3′-(2′-pyridyldithio)propionamide) for about an hour at RT, and the cover slips were then incubated overnight with streptavidin-FITC at 4° C. Blocking was performed using 20 mM NEM for 30 minutes at 4° C., followed by incubation with 0.05 mM MPB and 1 mM sodium ascorbate for 1 hour at RT. The nuclei were stained with 10 microgram/ml PI (propidium iodide) for 30 minutes at RT. The cells were analyzed by confocal microscopy (magnification 40×) using an Olympus BX50 microscope coupled to a Bio-Rad (Hercules Calif.) MRC 1024 confocal scanning laser microscope system. Control experiments were also performed in which blocking of SH groups was omitted, or in which 100 micromolar HgCl2 was added prior to blocking of SH groups with MMTS or NEM. To assess the contribution of endogenous biotinylated proteins, the biotin-label was omitted in some control cover slips. All manipulations were performed in the dark. […]

[2] = target: T1, IKKβ (Homo sapiens, UniProt O14920); assay: Biotin derivatization (biotin switch) of IKKβ in Jurkat T cells; assay type: cell-based
T1 construct: IKKβ was immunopurified from TNFα-stimulated Jurkat T cells treated with SNO; endogenous in cells; host or cells: Jurkat T cells
T1 sequence (O14920 1-756): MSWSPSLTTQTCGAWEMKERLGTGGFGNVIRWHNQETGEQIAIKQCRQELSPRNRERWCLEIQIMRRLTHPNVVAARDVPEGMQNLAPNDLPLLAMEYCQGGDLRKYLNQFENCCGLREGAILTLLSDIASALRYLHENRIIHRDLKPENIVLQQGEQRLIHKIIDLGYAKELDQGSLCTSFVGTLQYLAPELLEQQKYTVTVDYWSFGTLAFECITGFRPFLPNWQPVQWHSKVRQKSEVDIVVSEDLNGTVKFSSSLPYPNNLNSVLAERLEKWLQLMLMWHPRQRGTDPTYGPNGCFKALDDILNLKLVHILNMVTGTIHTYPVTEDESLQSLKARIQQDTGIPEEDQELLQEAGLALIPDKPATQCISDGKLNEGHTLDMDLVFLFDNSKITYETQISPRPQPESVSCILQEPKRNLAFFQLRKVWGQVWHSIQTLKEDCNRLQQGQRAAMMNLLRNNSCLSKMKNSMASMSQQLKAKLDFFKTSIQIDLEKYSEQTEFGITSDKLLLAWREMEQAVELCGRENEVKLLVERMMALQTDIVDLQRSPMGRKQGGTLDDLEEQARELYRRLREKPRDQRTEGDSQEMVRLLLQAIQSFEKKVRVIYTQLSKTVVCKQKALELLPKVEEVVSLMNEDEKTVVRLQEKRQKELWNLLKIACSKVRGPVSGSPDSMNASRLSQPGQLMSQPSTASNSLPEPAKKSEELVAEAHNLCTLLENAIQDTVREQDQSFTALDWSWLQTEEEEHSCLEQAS
Procedure: The detection of S-nitrosylated proteins was performed via a biotin switch method as follows. Following treatments, the cells were rinsed 2 times with PBS containing 0.1 mM EDTA and 0.01 mM neocuproine and lysed in HEN buffer (25 mM HEPES, pH 7.7, 0.1 mM EDTA, 0.01 mM neocuproine) containing 0.5% CHAPS, 0.1% SDS and 20 mM N-ethylmaleimide (NEM) at 4° C. for 30 min in order to block free thiols. The lysates were cleared by centrifugation at 14,000 g, 4° C. for 10 min and excess NEM was removed by protein precipitation using cold acetone. The protein pellets were resuspended in HENS buffer (HEN 1% SDS), and the SNO bonds were decomposed by adding 20 mM sodium ascorbate. The resulting free thiols were reacted with 0.05 mM sulfhydryl-specific biotinylating agent, N-(3-malemidylpropionyl)biocytin (MPB, Molecular Probes) for 30 min at room temperature, resulting in biotinylation of SNO. […] Biotinylated IKKβ was detected on the membrane using horseradish peroxidase-linked streptavidin. […]
A biotin derivatization method was also used to assess whether the IKKβ subunit is directly targeted by S-nitrosylation. […] IKKβ was subsequently immunoprecipitated from the lysates and its biotinylation was assessed using streptavidin-HRP on a western blot. […]

[3] = target: T1, IKKβ; assay: SNO content of immunopurified IKKβ by chemiluminescence; assay type: cell-based; conditions: Jurkat T cells exposed to L-CSNO and TNFα
Procedure: The total cellular SNO concentration (protein-bound plus free) was measured in lysates of cells treated with SNO in presence or absence of L-or D-cys. After 3 washes with PBS, the cells were lysed in the same buffer as was used for the biotin switch method. […] The amount of NO released from samples was estimated from a standard curve generated by injection of L-CSNO stock solutions. IKKβ was immunoprecipitated from Jurkat T cell lysates, using a monoclonal IKKβ antibody and protein G-agarose beads. After washing the immunoprecipitates 3 times with HEN buffer containing 50 mM NaCl to minimize co-associating proteins, the antigen-antibody complexes were removed from the beads by three 10 min incubations in 50 μl of 100 mM glycine pH 3.0 at 4° C. The eluates were treated with 0.6% sulfanilamide prior to the assessment of the SNO content via chemiluminescence, as described before. As a control, some lysates or immunoprecipitates were treated with 4.4 mM HgCl2 for 10 min at RT, followed by 20 min incubation at 4° C., and 10 min incubation with sulfanilamide at RT. To confirm that IKKβ was the predominant protein immunoprecipitated under these conditions, Laemmli sample buffer was added to the immunoprecipitate, samples were boiled, and evaluated on a silver-stained gel. All experiments were repeated at least two times and similar results were obtained. […]

[4] = target: T2, wt HA-IKKβ (Homo sapiens, UniProt O14920); assay: TNFα-stimulated kinase activity of transfected wt HA-IKKβ in C10 cells; assay type: cell-based; conditions: TNFα-stimulated enzymatic activity
T2 construct: expressed in transfected cells; host or cells: C10 mouse lung epithelial cells; plasmid a gift of Dr. Michael Karin
T2 sequence (O14920 1-756): T1 sequence (O14920 1-756)
Procedure: The cells were exposed to test agents and at indicated times, transferred to ice, washed twice with cold PBS, and lysed in buffer containing 50 mM HEPES, 150 mM NaCl, 1 mM EDTA, 2 mM MgCl2, 10 mM Na3VO4, 1 mM phenylmethylsulfonyl fluoride, 0.1% Nonidet P-40, 10 μg/ml leupeptin, 1% aprotinin, 250 μM DTT and 100 μM NaF. The lysates were cleared by centrifugation at 14,000 rpm, 4° C. for 10 min. Protein concentrations were determined and the IKK complex was immunoprecipitated with an IKKγ antibody (Santa Cruz) at 4° C. for 1.5 h using protein G agarose beads. The precipitates were washed once with lysis buffer and twice with kinase buffer (20 mM HEPES, 20 mM β-glycerolphosphate, 1 mM MnCl2, 5 mM MgCl2, 2 mM NaF and 250 μM DTT). The kinase reaction was performed using 1 μg glutathione-S transferase (GST)-IκBα as a substrate, provided by Dr. Rosa Ten (Mayo Clinic, Rochester, Minn.), and 5 μCi γ^32P-adenosine triphosphate at 30° C. for 30 min. Kinase assays were performed in presence of 250 μM DTT, the minimal concentration necessary in order to maintain maximal TNFα-stimulated activity. The reactions were stopped by the addition of 2× Laemmli sample buffer. […] In separate experiments, the immunoprecipitated IKK complex or JNK1 from TNFα-stimulated cells was exposed to SNAP or GSNO for 15 min in lysis buffer in vitro prior to assessment of kinase activity. […]

[5] = system: RelA (p65); assay: RelA (p65) immunostaining, cytoplasmic versus nuclear localization; assay type: cell-based, mouse
Procedure: FIGS. 4G and 4H illustrates an assessment of the presence of cytoplasmic protein. C10 cells were mock-treated (sham) (FIG. 4G) or stimulated with TNF alpha for 30 minutes, and submitted to the biotinylation protocols similar to those described above with respect to FIG. 1. RelA (p65) was detected using specific antibodies (Santa Cruz).
FIGS. 6A and 6C illustrate cells that were incubated with leptomycin B (5 ng/ml) for about 12 hours, followed by biotin derivatization, incubation with streptavidin-FITC, and analysis by confocal microscopy. […] These findings thus support the notion that S-nitrosylation occurs in proteins that are regulated by nuclear trafficking.
To ensure that the cytoplasmic targets were still present after this procedure, the presence of RelA was evaluated in sham or TNF alpha-treated cells. RelA, a subunit of the transcription factor, nuclear factor kappa B, is normally present in the cytoplasm and is translocated into the nucleus upon exposure to TNF alpha. […] In fact, increased S-nitrosylation of cytoplasmic proteins was observed after induction of NOS2 activity.

With `OO` [H2O2, hydrogen peroxide] as the compound, how does the “staining pattern (biotinylation)” value ([1]; 500 micromolar, 15 minutes) read?
The value was “failed to alter”.

For `N[C@@H](CSN=O)C(=O)O` [L-CSNO], which “S-nitrosylation of IKKβ (biotinylation)” value [2] is on record?
Its value is “increase”.

And the “SNO content of IKKβ” value [3]?
Its value is “marked increase”.

And the “activity of wt HA-IKKβ” value [4]?
Its value is “inhibited”.

How did the “biotinylation (S-nitrosylated proteins) in intact cells” value ([1]; 1 mM, 1 hour) turn out when `CC(=O)N[C@H](C(=O)O)C(C)(C)SN=O` [SNAP, S-nitroso-N-acetyl penicillamine] was run?
The value was “enhanced”.

`CCC(=C/[C@H](C)C/C=C/C(C)=C/[C@@H](C)C(=O)[C@@H](C)[C@H](O)[C@@H](C)C/C(C)=C/C(=O)O)/C=C/[C@@H]1OC(=O)C=C[C@@H]1C` [leptomycin B] was tested. Which “nuclear sequestration of RelA” value ([5]; 5 ng/ml, about 12 hours) did it give?
The value was “enhanced”.

And the “biotinylation in the nuclear compartment” value ([1]; 5 ng/ml, about 12 hours)?
The value was “enhanced”.

Which results are given for TNF alpha?
RelA presence in nucleus ([5]; 30 minutes, dual staining with PI): enhanced nuclear presence; S-nitrosylation of IKKβ (biotinylation) [2]: decreased
